Measurements from patent US20260297080A1, “BICYCLIC COMPOUNDS AS CDK INHIBITORS” (BeOne Medicines I GmbH, priority 2022, published 2026).

Columns and labels:
CDK2/Cyclin E1 = CDK2/Cyclin E1 (Homo sapiens, UniProt P24941); test: CDK2/Cyclin E1 Biochemical Assay (TR-FRET), 0.060 mM ATP; conditions: 0.15 μM Rb (Ser780)-biotin substrate, pH7.0, 60 min preincubation, 120 min reaction, room temperature
Procedure, shortened: (§1)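 TR-FRET assay with 0.15 μM Rb (Ser780)-biotin substrate and 0-10 μM compound in 50 mM HEPES pH7.0, 50 mM MgCl2, 1 mM DTT. ATP was 0.060 mM for CDK2/Cyclin E1 and 0.015 mM for CDK1/Cyclin B1. Kinase was preincubated with compound 60 min, reacted 120 min at room temperature, and IC50 was fitted (four-parameter) from the 665/620 nm ratio.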

CDK1/Cyclin B1 = CDK1/Cyclin B1 (Homo sapiens, UniProt P06493); test: CDK1/Cyclin B1 Biochemical Assay (TR-FRET), 0.015 mM ATP; conditions: 0.15 μM Rb (Ser780)-biotin substrate, pH7.0, 60 min preincubation, 120 min reaction, room temperature
Chain of CDK1/Cyclin B1 (P06493 whole entry): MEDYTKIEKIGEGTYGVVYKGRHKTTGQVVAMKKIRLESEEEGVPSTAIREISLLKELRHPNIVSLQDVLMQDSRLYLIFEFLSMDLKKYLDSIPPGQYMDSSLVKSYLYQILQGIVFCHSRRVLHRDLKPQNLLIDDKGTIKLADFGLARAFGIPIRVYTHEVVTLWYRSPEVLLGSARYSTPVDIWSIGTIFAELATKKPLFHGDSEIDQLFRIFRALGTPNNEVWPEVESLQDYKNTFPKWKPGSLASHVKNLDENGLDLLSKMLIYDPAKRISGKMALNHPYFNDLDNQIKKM
Chain of CDK1/Cyclin B1 (P14635 whole entry partner): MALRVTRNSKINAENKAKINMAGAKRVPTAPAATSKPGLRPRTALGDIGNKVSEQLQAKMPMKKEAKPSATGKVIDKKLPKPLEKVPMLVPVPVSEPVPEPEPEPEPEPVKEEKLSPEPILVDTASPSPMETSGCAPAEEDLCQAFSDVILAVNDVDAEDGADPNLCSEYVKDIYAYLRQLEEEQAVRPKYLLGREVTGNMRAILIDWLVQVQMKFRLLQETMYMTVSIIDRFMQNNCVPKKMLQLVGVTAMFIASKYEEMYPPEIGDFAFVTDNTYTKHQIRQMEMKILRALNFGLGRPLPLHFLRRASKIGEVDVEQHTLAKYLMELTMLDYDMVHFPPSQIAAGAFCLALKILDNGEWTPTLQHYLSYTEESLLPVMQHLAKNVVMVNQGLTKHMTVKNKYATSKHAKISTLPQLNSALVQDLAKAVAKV
Procedure, shortened: as §1

| IC50 (CDK2/Cyclin E1) [nM] | IC50 (CDK1/Cyclin B1) [nM] | Compound |
| --- | --- | --- |
| 35 | 1100 | O=C(NC1(CO)CCC1)O[C@H]1CC[C@@H](c2cc(Nc3cc4c(cc3F)NS(=O)(=O)C4)n[nH]2)C1 (relative stereo) [Example 408, cis-3-(3-((6-fluoro-2,2-dioxido-1,3-dihydrobenzo[c]isothiazol-5-yl)amino)-1H-pyrazol-5-yl)cyclopentyl(1-(hydroxymethyl)cyclobutyl)carbamate] |
| 5.8 | 210 | CC1(NC(=O)O[C@H]2CC[C@@H](c3cc(Nc4ccc5c(c4F)CS(=O)(=O)N5CC(F)(F)F)n[nH]3)C2)COC1 (relative stereo) [Example 409, cis-3-(3-((4-fluoro-2,2-dioxido-1-(2,2,2-trifluoroethyl)-1,3-dihydrobenzo[c]isothiazol-5-yl)amino)-1H-pyrazol-5-yl)cyclopentyl(3-methyloxetan-3-yl)carbamate] |
| 1.8 | 147 | CC(CC(F)(F)F)NC(=O)O[C@H]1CC[C@@H](c2cc(Nc3cc4c(cc3F)S(=O)(=O)NC4)n[nH]2)C1 (relative stereo) [Example 412, cis-3-(3-((6-fluoro-1,1-dioxido-2,3-dihydrobenzo[d]isothiazol-5-yl)amino)-1H-pyrazol-5-yl)cyclopentyl(4,4,4-trifluorobutan-2-yl)carbamate] |
| 3.5 | 412 | CC(NC(=O)O[C@H]1CC[C@@H](c2cc(Nc3cc4c(cc3F)S(=O)(=O)NC4)n[nH]2)C1)C1CC1 (relative stereo) [Example 413, cis-3-(3-((6-fluoro-1,1-dioxido-2,3-dihydrobenzo[d]isothiazol-5-yl)amino)-1H-pyrazol-5-yl)cyclopentyl(1-cyclopropylethyl)carbamate] |
| 7.3 | 232 | O=C(NCC1CC1)O[C@H]1CC[C@@H](c2cc(Nc3ccc4c(c3F)CNS4(=O)=O)n[nH]2)C1 (relative stereo) [Example 414, cis-3-(3-((4-fluoro-1,1-dioxido-2,3-dihydrobenzo[d]isothiazol-5-yl)amino)-1H-pyrazol-5-yl)cyclopentyl(cyclopropylmethyl)carbamate] |
| 26 | 700 | O=C(O[C@H]1CC[C@@H](c2cc(Nc3ccc4c(c3F)CS(=O)(=O)N4)n[nH]2)C1)N1CCOCC1 (relative stereo) [Example 415, cis-3-(3-((4-fluoro-2,2-dioxido-1,3-dihydrobenzo[c]isothiazol-5-yl)amino)-1H-pyrazol-5-yl)cyclopentyl morpholine-4-carboxylate] |
| 2.1 | 67 | COCC(C)(C)NC(=O)O[C@H]1CC[C@@H](c2cc(Nc3ccc4c(c3F)CS(=O)(=O)N4CC(F)(F)F)n[nH]2)C1 (relative stereo) [Example 416, cis-3-(3-((4-fluoro-2,2-dioxido-1-(2,2,2-trifluoroethyl)-1,3-dihydrobenzo[c]isothiazol-5-yl)amino)-1H-pyrazol-5-yl)cyclopentyl(1-methoxy-2-methylpropan-2-yl)carbamate] |
| 3 | 18 | O=C(NC1(CO)CCC1)O[C@H]1CC[C@@H](c2cc(Nc3ccc4c(c3)CS(=O)(=O)N4)n[nH]2)C1 (relative stereo) [Example 417, cis-3-(3-((2,2-dioxido-1,3-dihydrobenzo[c]isothiazol-5-yl)amino)-1H-pyrazol-5-yl)cyclopentyl(1-(hydroxymethyl)cyclobutyl)carbamate] |
| 2 | 32 | O=C(NC1(CO)CCC1)O[C@H]1CC[C@@H](c2cc(Nc3ccc4c(c3F)CS(=O)(=O)N4)n[nH]2)C1 (relative stereo) [Example 418, cis-3-(3-((4-fluoro-2,2-dioxido-1,3-dihydrobenzo[c]isothiazol-5-yl)amino)-1H-pyrazol-5-yl)cyclopentyl(1-(hydroxymethyl)cyclobutyl)carbamate] |
| 22 | 860 | CC(C)NC(=O)O[C@H]1CC[C@@H](c2cc(Nc3cc4c(cc3F)CNS4(=O)=O)n[nH]2)C1 (single isomer, unassigned) [Example 1a, cis-3-(3-((5-fluoro-1,1-dioxido-2,3-dihydrobenzo[d]isothiazol-6-yl)amino)-1H-pyrazol-5-yl)cyclopentyl isopropylcarbamate] |
| 18 | 259 | CC(C)NC(=O)O[C@H]1CC[C@@H](c2cc(Nc3cc4c(cc3F)CNS4(=O)=O)n[nH]2)C1 (single isomer, unassigned) [Example 1b, cis-3-(3-((5-fluoro-1,1-dioxido-2,3-dihydrobenzo[d]isothiazol-6-yl)amino)-1H-pyrazol-5-yl)cyclopentyl isopropylcarbamate] |
| 2.2 | 49 | CC(C)NC(=O)O[C@H]1CC[C@@H](c2cc(Nc3ccc4c(c3)S(=O)(=O)NC4C)[nH]n2)C1 (single isomer, unassigned) [Example 5a, cis-3-(5-((3-methyl-1,1-dioxido-2,3-dihydrobenzo[d]isothiazol-6-yl)amino)-1H-pyrazol-3-yl)cyclopentyl isopropylcarbamate] |
| 1 | 14 | CC(C)NC(=O)O[C@H]1CC[C@@H](c2cc(Nc3ccc4c(c3)S(=O)(=O)NC4C)[nH]n2)C1 (single isomer, unassigned) [Example 5b, cis-3-(5-((3-methyl-1,1-dioxido-2,3-dihydrobenzo[d]isothiazol-6-yl)amino)-1H-pyrazol-3-yl)cyclopentyl isopropylcarbamate] |
| 4.2 | 95 | CC(C)NC(=O)O[C@H]1CC[C@@H](c2cc(Nc3ccc4c(c3)S(=O)(=O)NC4C)[nH]n2)C1 (single isomer, unassigned) [Example 5c, cis-3-(5-((3-methyl-1,1-dioxido-2,3-dihydrobenzo[d]isothiazol-6-yl)amino)-1H-pyrazol-3-yl)cyclopentyl isopropylcarbamate] |
| 2.9 | 45 | CC(C)NC(=O)O[C@H]1CC[C@@H](c2cc(Nc3ccc4c(c3)S(=O)(=O)NC4C)[nH]n2)C1 (single isomer, unassigned) [Example 5d, cis-3-(5-((3-methyl-1,1-dioxido-2,3-dihydrobenzo[d]isothiazol-6-yl)amino)-1H-pyrazol-3-yl)cyclopentyl isopropylcarbamate] |
| 0.9 | 28 | CC(C)NC(=O)O[C@@H]1CC[C@H](c2cc(Nc3ccc4c(c3)CS(=O)(=O)N4)n[nH]2)C1 (single isomer, unassigned) [Example 7a] |
| 0.9 | 17 | CC(C)NC(=O)O[C@H]1CC[C@@H](c2cc(Nc3ccc4c(c3)CS(=O)(=O)N4)n[nH]2)C1 (single isomer, unassigned) [Example 7b] |
| 4.5 | 375 | CC(C)NC(=O)O[C@H]1CC[C@@H](c2cc(Nc3ccc4c(c3F)CNS4(=O)=O)n[nH]2)C1 (single isomer, unassigned) [Example 9a, cis-3-(3-((4-fluoro-1,1-dioxido-2,3-dihydrobenzo[d]isothiazol-5-yl)amino)-1H-pyrazol-5-yl)cyclopentyl isopropylcarbamate] |
| 2.5 | 94 | CC(C)NC(=O)O[C@H]1CC[C@@H](c2cc(Nc3ccc4c(c3F)CNS4(=O)=O)n[nH]2)C1 (single isomer, unassigned) [Example 9b, cis-3-(3-((4-fluoro-1,1-dioxido-2,3-dihydrobenzo[d]isothiazol-5-yl)amino)-1H-pyrazol-5-yl)cyclopentyl isopropylcarbamate] |
| 10 | 921 | CC(C)NC(=O)O[C@H]1CC[C@@H](c2cc(Nc3cc4c(cc3F)S(=O)(=O)NC4)n[nH]2)C1 (single isomer, unassigned) [Example 12a, cis-3-(3-((6-fluoro-1,1-dioxido-2,3-dihydrobenzo[d]isothiazol-5-yl)amino)-1H-pyrazol-5-yl)cyclopentyl isopropylcarbamate] |
| 9.3 | 359 | CC(C)NC(=O)O[C@H]1CC[C@@H](c2cc(Nc3cc4c(cc3F)S(=O)(=O)NC4)n[nH]2)C1 (single isomer, unassigned) [Example 12b, cis-3-(3-((6-fluoro-1,1-dioxido-2,3-dihydrobenzo[d]isothiazol-5-yl)amino)-1H-pyrazol-5-yl)cyclopentyl isopropylcarbamate] |
| 38 | 1500 | CC(C)NC(=O)O[C@H]1CC[C@@H](c2cc(Nc3ccc4c(c3Cl)CNS4(=O)=O)n[nH]2)C1 (single isomer, unassigned) [Example 38a, cis-3-(3-((4-chloro-1,1-dioxido-2,3-dihydrobenzo[d]isothiazol-5-yl)amino)-1H-pyrazol-5-yl)cyclopentyl isopropylcarbamate] |
| 13 | 279 | CC(C)NC(=O)O[C@H]1CC[C@@H](c2cc(Nc3ccc4c(c3Cl)CNS4(=O)=O)n[nH]2)C1 (single isomer, unassigned) [Example 38b, cis-3-(3-((4-chloro-1,1-dioxido-2,3-dihydrobenzo[d]isothiazol-5-yl)amino)-1H-pyrazol-5-yl)cyclopentyl isopropylcarbamate] |
| 49 | 1360 | CCCNC(=O)O[C@H]1CC[C@@H](c2cc(Nc3ccc4c(c3Cl)CNS4(=O)=O)n[nH]2)C1 (single isomer, unassigned) [Example 39a, cis-3-(3-((4-chloro-1,1-dioxido-2,3-dihydrobenzo[d]isothiazol-5-yl)amino)-1H-pyrazol-5-yl)cyclopentyl propylcarbamate] |
| 26 | 390 | CCCNC(=O)O[C@H]1CC[C@@H](c2cc(Nc3ccc4c(c3Cl)CNS4(=O)=O)n[nH]2)C1 (single isomer, unassigned) [Example 39b, cis-3-(3-((4-chloro-1,1-dioxido-2,3-dihydrobenzo[d]isothiazol-5-yl)amino)-1H-pyrazol-5-yl)cyclopentyl propylcarbamate] |
